Results as given in patent US11358952B2, “Substituted 4-aminoisoindoline-1,3-dione compounds, compositions thereof, and methods of treatment therewith” (Celgene Corporation, priority 2018, dated 2022).

What follows are compounds tested on SU-DHL-4 cell line (assay: SU-DHL-4 cell proliferation assay (Cell Titer-Glo viability)). Settings: Homo sapiens; cell viability IC50 activity level, DLBCL cell line SU-DHL-4, 120 hours post-treatment; read-out: SU-DHL-4 Act.
Format: cell-based
Procedure, shortened: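 SU-DHL-4 cells (500/well, RPMI-1640 + 10% FBS) exposed to 20-point compound dilutions (0.5 nM–10 μM, 0.1% DMSO) for 120 h at 37°C, 5% CO2. Viability measured by Cell Titer-Glo luminescence at t0 and at 120 h. IC50 is the concentration giving 50% of DMSO control, from a four-parameter logistic fit.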

SMILES	IC50 [nM]
Cc1cc(CNc2cccc3c2C(=O)N(C2CCC(=O)NC2=O)C3=O)ccc1CN1CCN(c2ccc(F)cc2F)CC1 (stereo not shown) [Cpd 50, 4-(4-((4-(2,4-difluorophenyl)piperazin-1-yl)methyl)-3-methylbenzylamino)-2-(2,6-dioxopiperidin-3-yl)isoindoline-1,3-dione]	200 to 500
O=C1CCC(N2C(=O)c3cccc(NCc4ccc(CN5CCC6(CCOC6)CC5)cc4F)c3C2=O)C(=O)N1 (stereo not shown) [Cpd 231, 4-(4-(2-oxa-8-azaspiro[4.5]decan-8-ylmethyl)-2-fluorobenzylamino)-2-(2,6-dioxopiperidin-3-yl)isoindoline-1,3-dione]	< 200
Cc1cc(CNc2cccc3c2C(=O)N(C2CCC(=O)NC2=O)C3=O)ccc1CN1CCC2(CC1)CC(F)(F)C2 (stereo not shown) [Cpd 47, 4-(4-((2,2-difluoro-7-azaspiro[3.5]nonan-7-yl)methyl)-3-methylbenzylamino)-2-(2,6-dioxopiperidin-3-yl)isoindoline-1,3-dione]	< 200
CC(C)(C)C1CN(Cc2ccc(CNc3cccc4c3C(=O)N(C3CCC(=O)NC3=O)C4=O)cc2)C1 (stereo not shown) [Cpd 114, 4-(4-((3-tert-butylazetidin-1-yl)methyl)benzylamino)-2-(2,6-dioxopiperidin-3-yl)isoindoline-1,3-dione]	< 200
NC(=O)c1ccc(N2CCN(Cc3ccc(CNc4cccc5c4C(=O)N(C4CCC(=O)NC4=O)C5=O)cc3F)CC2)cc1 (stereo not shown) [Cpd 141, 4-(4-(4-((2-(2,6-dioxopiperidin-3-yl)-1,3-dioxoisoindolin-4-ylamino)methyl)-2-fluorobenzyl)piperazin-1-yl)benzamide]	< 200
O=C1CCC(N2C(=O)c3cccc(NCc4ccc(CN5CCC6(CCNC6=O)CC5)cc4F)c3C2=O)C(=O)N1 (stereo not shown) [Cpd 150, 2-(2,6-dioxopiperidin-3-yl)-4-(2-fluoro-4-((1-oxo-2,8-diazaspiro[4.5]decan-8-yl)methyl)benzylamino)isoindoline-1,3-dione]	< 200
CC1(C)CN(c2ccc(C#N)nc2)CCN1Cc1ccc(CNc2cccc3c2C(=O)N(C2CCC(=O)NC2=O)C3=O)cc1 (stereo not shown) [Cpd 85, 5-(4-(4-((2-(2,6-dioxopiperidin-3-yl)-1,3-dioxoisoindolin-4-ylamino)methyl)benzyl)-3,3-dimethylpiperazin-1-yl)picolinonitrile]	< 200
Cc1cc(CNc2cccc3c2C(=O)N(C2CCC(=O)NC2=O)C3=O)ccc1CN1CC(N2CC3CCC(C2)O3)C1 (stereo not shown) [Cpd 223, 4-(4-((3-(8-oxa-3-azabicyclo[3.2.1]octan-3-yl)azetidin-1-yl)methyl)-3-methylbenzylamino)-2-(2,6-dioxopiperidin-3-yl)isoindoline-1,3-dione]	< 200
Cc1cc(CNc2cccc3c2C(=O)N(C2CCC(=O)NC2=O)C3=O)ccc1CN1CCN(C2CC2)CC1 (stereo not shown) [Cpd 66, 4-(4-((4-cyclopropylpiperazin-1-yl)methyl)-3-methylbenzylamino)-2-(2,6-dioxopiperidin-3-yl)isoindoline-1,3-dione]	< 200
O=C1CCC(N2C(=O)c3cccc(NCc4ccc(CN5CC6(CCOC6)C5)cc4F)c3C2=O)C(=O)N1 (stereo not shown) [Cpd 241, 4-(4-(6-oxa-2-azaspiro[3.4]octan-2-ylmethyl)-2-fluorobenzylamino)-2-(2,6-dioxopiperidin-3-yl)isoindoline-1,3-dione]	< 200
Cc1cc(CNc2cccc3c2C(=O)N(C2CCC(=O)NC2=O)C3=O)ccc1CN1CCC(N2CCOCC2)CC1 (stereo not shown) [Cpd 211, 2-(2,6-dioxopiperidin-3-yl)-4-(3-methyl-4-((4-morpholinopiperidin-1-yl)methyl)benzylamino)isoindoline-1,3-dione]	200 to 500
CCC1(OC)CCN(Cc2ccc(CNc3cccc4c3C(=O)N(C3CCC(=O)NC3=O)C4=O)cc2F)CC1 (stereo not shown) [Cpd 157, 2-(2,6-dioxopiperidin-3-yl)-4-(4-((4-ethyl-4-methoxypiperidin-1-yl)methyl)-3-fluorobenzylamino)isoindoline-1,3-dione]	< 200
O=C1CCC(N2C(=O)c3cccc(NCc4ccc(CN5CCN(c6noc7ccccc67)CC5)cc4)c3C2=O)C(=O)N1 (stereo not shown) [Cpd 187, 4-(4-((4-(benzo[d]isoxazol-3-yl)piperazin-1-yl)methyl)benzylamino)-2-(2,6-dioxopiperidin-3-yl)isoindoline-1,3-dione]	200 to 500
Cc1cc(CNc2cccc3c2C(=O)N(C2CCC(=O)NC2=O)C3=O)ccc1CN1CCC2(CCC2)C1 (stereo not shown) [Cpd 76, 4-(4-(6-azaspiro[3.4]octan-6-ylmethyl)-3-methylbenzylamino)-2-(2,6-dioxopiperidin-3-yl)isoindoline-1,3-dione]	200 to 500
Cc1cc(CN2CCN(C(C)(C)C)CC2)ccc1CNc1cccc2c1C(=O)N(C1CCC(=O)NC1=O)C2=O (stereo not shown) [Cpd 97, 4-(4-((4-tert-butylpiperazin-1-yl)methyl)-2-methylbenzylamino)-2-(2,6-dioxopiperidin-3-yl)isoindolline-1,3-dione]	501 to 750
O=C1CCC(N2C(=O)c3cccc(NCc4ccc(CN5CC(N6C7CCC6COC7)C5)cc4F)c3C2=O)C(=O)N1 (stereo not shown) [Cpd 246, 4-(4-((3-(3-oxa-8-azabicyclo[3.2.1]octan-8-yl)azetidin-1-yl)methyl)-2-fluorobenzylamino)-2-(2,6-dioxopiperidin-3-yl)isoindoline-1,3-dione]	< 200

SMILES	IC50 [nM]
O=C1CCC(N2C(=O)c3cccc(NCc4ccc(CN5CC6(CCC6)C5)cc4F)c3C2=O)C(=O)N1 (stereo not shown) [Cpd 137, 4-(4-(2-azaspiro[3.3]heptan-2-ylmethyl)-2-fluorobenzylamino)-2-(2,6-dioxopiperidin-3-yl)isoindoline-1,3-dione]	< 200
O=C1CCC(N2C(=O)c3cccc(NCc4ccc(CN5CC(c6ccccn6)C5)cc4F)c3C2=O)C(=O)N1 (stereo not shown) [Cpd 165, 2-(2,6-dioxopiperidin-3-yl)-4-(2-fluoro-4-((3-(pyridin-2-yl)azetidin-1-yl)methyl)benzylamino)isoindoline-1,3-dione]	< 200
O=C1CCC(N2C(=O)c3cccc(NCc4ccc(CN5CCC(N6CCOCC6)CC5)cc4)c3C2=O)C(=O)N1 (stereo not shown) [Cpd 210, 2-(2,6-dioxopiperidin-3-yl)-4-(4-((4-morpholinopiperidin-1-yl)methyl)benzylamino)isoindoline-1,3-dione]	200 to 500
O=C1CCC(N2C(=O)c3cccc(NCc4ccc(CN5CCC(n6cccn6)CC5)cc4)c3C2=O)C(=O)N1 (stereo not shown) [Cpd 25, 4-(4-((4-(1H-pyrazol-1-yl)piperidin-1-yl)methyl)benzylamino)-2-(2,6-dioxopiperidin-3-yl)isoindoline-1,3-dione]	200 to 500
O=C1CCC(N2C(=O)c3cccc(NCc4ccc(CN5CC(c6ccccn6)C5)cc4)c3C2=O)C(=O)N1 (stereo not shown) [Cpd 16, 2-(2,6-dioxopiperidin-3-yl)-4-(4-((3-(pyridin-2-yl)azetidin-1-yl)methyl)benzylamino)isoindoline-1,3-dione]	< 200
Cc1cc(CN2CCC(C(C)C)CC2)ccc1CNc1cccc2c1C(=O)N(C1CCC(=O)NC1=O)C2=O (stereo not shown) [Cpd 100, 2-(2,6-dioxopiperidin-3-yl)-4-(4-((4-isopropylpiperidin-1-yl)methyl)-2-methylbenzylamino)isoindoline-1,3-dione]	200 to 500
NC(=O)c1ccc(N2CCN(Cc3ccc(CNc4cccc5c4C(=O)N([C@H]4CCC(=O)NC4=O)C5=O)cc3)CC2)cn1 [Cpd 58, (S)-5-(4-(4-((2-(2,6-dioxopiperidin-3-yl)-1,3-dioxoisoindolin-4-ylamino)methyl)benzyl)piperazin-1-yl)picolinamide]	< 200
Cc1cc(CNc2cccc3c2C(=O)N(C2CCC(=O)NC2=O)C3=O)ccc1CN1CCN(C(C)(C)C)CC1 (stereo not shown) [Cpd 68, 4-(4-((4-tert-butylpiperazin-1-yl)methyl)-3-methylbenzylamino)-2-(2,6-dioxopiperidin-3-yl)isoindoline-1,3-dione]	< 200
CC(C)(C)C1CN(Cc2ccc(CNc3cccc4c3C(=O)N(C3CCC(=O)NC3=O)C4=O)c(F)c2)C1 (stereo not shown) [Cpd 134, 4-(4-((3-tert-butylazetidin-1-yl)methyl)-2-fluorobenzylamino)-2-(2,6-dioxopiperidin-3-yl)isoindoline-1,3-dione]	< 200
O=C1CCC(N2C(=O)c3cccc(NCc4ccc(CN5CCC(c6cc(F)cc(F)c6)CC5)cc4)c3C2=O)C(=O)N1 (stereo not shown) [Cpd 20, 4-(4-((4-(3,5-difluorophenyl)piperidin-1-yl)methyl)benzylamino)-2-(2,6-dioxopiperidin-3-yl)isoindoline-1,3-dione]	200 to 500
CC1(C)CN(C2CN(Cc3ccc(CNc4cccc5c4C(=O)N(C4CCC(=O)NC4=O)C5=O)c(F)c3)C2)CCO1 (stereo not shown) [Cpd 245, 4-(4-((3-(2,2-dimethylmorpholino)azetidin-1-yl)methyl)-2-fluorobenzylamino)-2-(2,6-dioxopiperidin-3-yl)isoindoline-1,3-dione]	< 200
O=C1CCC(N2C(=O)c3cccc(NCc4ccc(CN5CCN(c6ccc(F)cc6F)CC5)c(F)c4)c3C2=O)C(=O)N1 (stereo not shown) [Cpd 109, 4-(4-((4-(2,4-difluorophenyl)piperazin-1-yl)methyl)-3-fluorobenzylamino)-2-(2,6-dioxopiperidin-3-yl)isoindoline-1,3-dione]	< 200
CC1(C)CCC2(CCN(Cc3ccc(CNc4cccc5c4C(=O)N(C4CCC(=O)NC4=O)C5=O)cc3)CC2)O1 (stereo not shown) [Cpd 129, 4-(4-((2,2-dimethyl-1-oxa-8-azaspiro[4.5]decan-8-yl)methyl)benzylamino)-2-(2,6-dioxopiperidin-3-yl)isoindoline-1,3-dione]	< 200
O=C1CCC(N2C(=O)c3cccc(NCc4ccc(CN5CCC(O)(C(F)(F)F)CC5)cc4)c3C2=O)C(=O)N1 (stereo not shown) [Cpd 130, 2-(2,6-dioxopiperidin-3-yl)-4-(4-((4-hydroxy-4-(trifluoromethyl)piperidin-1-yl)methyl)benzylamino)isoindoline-1,3-dione]	751 to 1000
O=C1CCC(N2C(=O)c3cccc(NCc4ccc(CN5CCCOCC5)cc4F)c3C2=O)C(=O)N1 (stereo not shown) [Cpd 242, 4-(4-((1,4-oxazepan-4-yl)methyl)-2-fluorobenzylamino)-2-(2,6-dioxopiperidin-3-yl)isoindoline-1,3-dione]	200 to 500
